Source: PubChem BioAssay (NCI)
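How tested: cells in 96-well plates exposed to compound for 48 hours at five concentrations. TGI: total growth inhibition.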

How the values were obtained:
Test in all cases: NCI tumour cell line growth inhibition, 48 h
SK-OV-3 ovarian = test system: SK-OV-3 ovarian
LXFL 529 NSCLC = test system: LXFL 529 NSCLC
UACC-257 melanoma = test system: UACC-257 melanoma
COLO 205 colon = test system: COLO 205 colon
NCI-H226 lung = test system: NCI-H226 lung
RXF 393 renal = test system: RXF 393 renal
SK-MEL-28 melanoma = test system: SK-MEL-28 melanoma
TK-10 renal = test system: TK-10 renal
U251 CNS = test system: U251 CNS
CCRF-CEM leukemia = test system: CCRF-CEM leukemia
MOLT-4 leukemia = test system: MOLT-4 leukemia
NCI-H460 lung = test system: NCI-H460 lung
KM12 colon = test system: KM12 colon
SNB-75 CNS = test system: SNB-75 CNS
A549 NSCLC = test system: A549 NSCLC
RXF-631 renal = test system: RXF-631 renal
HOP-92 NSCLC = test system: HOP-92 NSCLC
OVCAR-5 ovarian = test system: OVCAR-5 ovarian
OVCAR-4 ovarian = test system: OVCAR-4 ovarian
A498 renal = test system: A498 renal
HCC-2998 colon = test system: HCC-2998 colon
MALME-3M melanoma = test system: MALME-3M melanoma
M14 melanoma = test system: M14 melanoma
K-562 leukemia = test system: K-562 leukemia
786-0 renal = test system: 786-0 renal
IGROV1 ovarian = test system: IGROV1 ovarian
UO-31 renal = test system: UO-31 renal
CAKI-1 renal = test system: CAKI-1 renal
HT29 colon = test system: HT29 colon
DLD-1 colon = test system: DLD-1 colon
OVCAR-3 ovarian = test system: OVCAR-3 ovarian
SNB-19 CNS = test system: SNB-19 CNS
KM20L2 colon = test system: KM20L2 colon
HOP-62 NSCLC = test system: HOP-62 NSCLC
SR leukemia = test system: SR leukemia
LOX IMVI melanoma = test system: LOX IMVI melanoma
RPMI-8226 leukemia = test system: RPMI-8226 leukemia
OVCAR-8 ovarian = test system: OVCAR-8 ovarian
HCT-15 colon = test system: HCT-15 colon
NCI-H522 lung = test system: NCI-H522 lung
SNB-78 CNS = test system: SNB-78 CNS
DMS 114 small cell lung = test system: DMS 114 small cell lung
HOP-18 NSCLC = test system: HOP-18 NSCLC
UACC-62 melanoma = test system: UACC-62 melanoma
NCI-H23 lung = test system: NCI-H23 lung
SK-MEL-5 melanoma = test system: SK-MEL-5 melanoma
SF-295 CNS = test system: SF-295 CNS
ACHN renal = test system: ACHN renal
SF-268 CNS = test system: SF-268 CNS
DMS 273 small cell lung = test system: DMS 273 small cell lung
SN12C renal = test system: SN12C renal
SK-MEL-2 melanoma = test system: SK-MEL-2 melanoma
HCT-116 colon = test system: HCT-116 colon
EKVX NSCLC = test system: EKVX NSCLC
M19-MEL melanoma = test system: M19-MEL melanoma
SW-620 colon = test system: SW-620 colon
HL-60(TB) leukemia = test system: HL-60(TB) leukemia
SF-539 CNS = test system: SF-539 CNS
XF 498 CNS = test system: XF 498 CNS

CCCCCCCC[N+](C)(C)Cc1ccc(C[N+](C)(C)CCCCCCCC)cc1
TGI (SK-OV-3 ovarian): > 100 µM
TGI (LXFL 529 NSCLC): > 100 µM
TGI (UACC-257 melanoma): > 100 µM
TGI (COLO 205 colon): 3.48 µM
TGI (NCI-H226 lung): > 100 µM
TGI (RXF 393 renal): > 100 µM
TGI (SK-MEL-28 melanoma): > 100 µM
TGI (TK-10 renal): > 100 µM
TGI (U251 CNS): > 100 µM
TGI (CCRF-CEM leukemia): > 100 µM
TGI (MOLT-4 leukemia): > 100 µM
TGI (NCI-H460 lung): > 100 µM
TGI (KM12 colon): > 100 µM
TGI (SNB-75 CNS): > 100 µM
TGI (A549 NSCLC): > 100 µM
TGI (RXF-631 renal): > 100 µM
TGI (HOP-92 NSCLC): 88.1 µM
TGI (OVCAR-5 ovarian): > 100 µM
TGI (OVCAR-4 ovarian): > 100 µM
TGI (A498 renal): > 100 µM
TGI (HCC-2998 colon): > 100 µM
TGI (MALME-3M melanoma): > 100 µM
TGI (M14 melanoma): > 100 µM
TGI (K-562 leukemia): > 100 µM
TGI (786-0 renal): > 100 µM
TGI (IGROV1 ovarian): 65.1 µM
TGI (UO-31 renal): > 100 µM
TGI (CAKI-1 renal): > 100 µM
TGI (HT29 colon): > 100 µM
TGI (DLD-1 colon): > 100 µM
TGI (OVCAR-3 ovarian): > 100 µM
TGI (SNB-19 CNS): > 100 µM
TGI (KM20L2 colon): > 100 µM
TGI (HOP-62 NSCLC): > 100 µM
TGI (SR leukemia): > 100 µM
TGI (LOX IMVI melanoma): > 100 µM
TGI (RPMI-8226 leukemia): > 100 µM
TGI (OVCAR-8 ovarian): > 100 µM
TGI (HCT-15 colon): > 100 µM
TGI (NCI-H522 lung): > 100 µM
TGI (SNB-78 CNS): > 100 µM
TGI (DMS 114 small cell lung): > 100 µM
TGI (HOP-18 NSCLC): > 100 µM
TGI (UACC-62 melanoma): > 100 µM
TGI (NCI-H23 lung): 47 µM
TGI (SK-MEL-5 melanoma): > 100 µM
TGI (SF-295 CNS): > 100 µM
TGI (ACHN renal): > 100 µM
TGI (SF-268 CNS): > 100 µM
TGI (DMS 273 small cell lung): 36.5 µM
TGI (SN12C renal): > 100 µM
TGI (SK-MEL-2 melanoma): > 100 µM
TGI (HCT-116 colon): > 100 µM
TGI (EKVX NSCLC): > 100 µM
TGI (M19-MEL melanoma): > 100 µM
TGI (SW-620 colon): > 100 µM
TGI (HL-60(TB) leukemia): 97.6 µM

Cc1nc(NC(=S)NC(=O)c2ccc(Cl)c(Cl)c2)sc1C(=O)/C=C/c1ccccc1[N+](=O)[O-]
TGI (SK-OV-3 ovarian): 49.7 µM
TGI (LXFL 529 NSCLC): 74.3 µM
TGI (UACC-257 melanoma): 89.1 µM
TGI (COLO 205 colon): 34.9 µM
TGI (RXF 393 renal): 41 µM
TGI (SK-MEL-28 melanoma): 78.4 µM
TGI (TK-10 renal): 71.3 µM
TGI (U251 CNS): 32.9 µM
TGI (CCRF-CEM leukemia): 73.9 µM
TGI (MOLT-4 leukemia): 52.6 µM
TGI (NCI-H460 lung): > 100 µM
TGI (KM12 colon): 39.3 µM
TGI (A549 NSCLC): 60.3 µM
TGI (RXF-631 renal): 56 µM
TGI (HOP-92 NSCLC): 24.2 µM
TGI (OVCAR-4 ovarian): 88.2 µM
TGI (HCC-2998 colon): > 100 µM
TGI (MALME-3M melanoma): 41.9 µM
TGI (M14 melanoma): 51.5 µM
TGI (K-562 leukemia): 42.2 µM
TGI (786-0 renal): 33.5 µM
TGI (IGROV1 ovarian): 66.7 µM
TGI (UO-31 renal): 45.6 µM
TGI (CAKI-1 renal): 47.3 µM
TGI (SF-539 CNS): 40.5 µM
TGI (HT29 colon): 46 µM
TGI (DLD-1 colon): > 100 µM
TGI (OVCAR-3 ovarian): 51.7 µM
TGI (SNB-19 CNS): 46.9 µM
TGI (KM20L2 colon): 35.9 µM
TGI (HOP-62 NSCLC): 47.9 µM
TGI (SR leukemia): 63.1 µM
TGI (LOX IMVI melanoma): 34.3 µM
TGI (RPMI-8226 leukemia): > 100 µM
TGI (OVCAR-8 ovarian): 63.5 µM
TGI (HCT-15 colon): 51 µM
TGI (NCI-H522 lung): 33.7 µM
TGI (SNB-78 CNS): 91.2 µM
TGI (HOP-18 NSCLC): 41.7 µM
TGI (XF 498 CNS): 35.9 µM
TGI (UACC-62 melanoma): 28.5 µM
TGI (NCI-H23 lung): 44.9 µM
TGI (SF-295 CNS): 58.9 µM
TGI (ACHN renal): 67.4 µM
TGI (SF-268 CNS): > 100 µM
TGI (DMS 273 small cell lung): 48.3 µM
TGI (SN12C renal): 61.7 µM
TGI (SK-MEL-2 melanoma): 44.4 µM
TGI (HCT-116 colon): 47.9 µM
TGI (EKVX NSCLC): 91.6 µM
TGI (M19-MEL melanoma): 79.7 µM
TGI (SW-620 colon): 41.2 µM
TGI (HL-60(TB) leukemia): 45.8 µM

N#CN=Nc1cc(Cl)c(N=NC#N)cc1Cl
TGI (SK-OV-3 ovarian): > 100 µM
TGI (LXFL 529 NSCLC): > 100 µM
TGI (UACC-257 melanoma): > 100 µM
TGI (COLO 205 colon): > 100 µM
TGI (NCI-H226 lung): > 100 µM
TGI (RXF 393 renal): > 100 µM
TGI (SK-MEL-28 melanoma): > 100 µM
TGI (TK-10 renal): > 100 µM
TGI (U251 CNS): > 100 µM
TGI (CCRF-CEM leukemia): 92.2 µM
TGI (MOLT-4 leukemia): > 100 µM
TGI (NCI-H460 lung): > 100 µM
TGI (KM12 colon): > 100 µM
TGI (SNB-75 CNS): > 100 µM
TGI (A549 NSCLC): > 100 µM
TGI (HOP-92 NSCLC): > 100 µM
TGI (OVCAR-5 ovarian): > 100 µM
TGI (OVCAR-4 ovarian): > 100 µM
TGI (A498 renal): > 100 µM
TGI (HCC-2998 colon): > 100 µM
TGI (MALME-3M melanoma): > 100 µM
TGI (M14 melanoma): > 100 µM
TGI (K-562 leukemia): > 100 µM
TGI (IGROV1 ovarian): > 100 µM
TGI (SF-539 CNS): > 100 µM
TGI (HT29 colon): > 100 µM
TGI (DLD-1 colon): > 100 µM
TGI (OVCAR-3 ovarian): > 100 µM
TGI (SNB-19 CNS): > 100 µM
TGI (KM20L2 colon): > 100 µM
TGI (HOP-62 NSCLC): > 100 µM
TGI (SR leukemia): > 100 µM
TGI (LOX IMVI melanoma): > 100 µM
TGI (OVCAR-8 ovarian): > 100 µM
TGI (HCT-15 colon): > 100 µM
TGI (NCI-H522 lung): > 100 µM
TGI (SNB-78 CNS): > 100 µM
TGI (DMS 114 small cell lung): > 100 µM
TGI (XF 498 CNS): > 100 µM
TGI (UACC-62 melanoma): > 100 µM
TGI (NCI-H23 lung): > 100 µM
TGI (SK-MEL-5 melanoma): > 100 µM
TGI (SF-295 CNS): > 100 µM
TGI (ACHN renal): > 100 µM
TGI (SF-268 CNS): > 100 µM
TGI (DMS 273 small cell lung): > 100 µM
TGI (SN12C renal): > 100 µM
TGI (SK-MEL-2 melanoma): > 100 µM
TGI (HCT-116 colon): > 100 µM
TGI (EKVX NSCLC): > 100 µM
TGI (M19-MEL melanoma): > 100 µM
TGI (SW-620 colon): > 100 µM
TGI (HL-60(TB) leukemia): > 100 µM
